Data from paper PMC8584931 (International Journal of Molecular Sciences, 2021).

How the values were obtained:
[1] = system: PC-3 cells; assay: cells; conditions: Homo sapiens, PC-3, 48 h, read-out: PC-3 IV (intermediate value)
Description: (§1) Cell viability was evaluated by MTT assay.
(§2) It is necessary for this IV to have a method of comparison for the combination of experiments.
(§3) Human colorectal cancer HT-29 and prostate cancer PC-3 cell lines were obtained from the American Type Culture Collection (ATCC; Manassas, VA, USA) and maintained according to ATCC’s recommendations at 37 °C and 5% CO2 in appropriate medium supplemented with 10% foetal bovine serum, 100 U/mL penicillin G and 100 µg/mL streptomycin. Cells were maintained in the logarithmic growth phase at all times. The media were changed every 2 days and trypsinised with 0.25% trypsin–EDTA. A total of 100 µL of HT-29 cells (7500 cells/well) or PC-3 cells (5000 cells/well) were seeded in 96-well plates and allowed to adhere overnight before drug exposure. After 24 h, the cell culture media were replaced with 100 µL of drug-containing media. […]
(§4) The IV value was first determined for each drug alone in HT-29 and PC-3 cells. […] Both Drug A and Drug B concentrations were variable, and the combined effects of equipotent concentrations (fixed ratio) of the IV values for each drug were evaluated.
(§5) For the MTT protocol, after drug treatment, the cell medium was removed and 100 µL/well of MTT solution (0.5 mg/mL in PBS) was added. […] Absorbance was measured at 570 nm in an automated microplate reader (Tecan Infinite M200, Tecan Group Ltd., Männedorf, Switzerland). […]

[2] = system: HT-29 cells; assay: cells; conditions: Homo sapiens, HT-29, 48 h, read-out: HT-29 IV (intermediate value)
Description: as §1, §2, §3, §4, §5

| IC50 [1] | IC50 [2] | SMILES |
| --- | --- | --- |
| 0.01 µM | – | CC(=O)O[C@H]1C(=O)[C@@]2(C)[C@H]([C@H](OC(=O)c3ccccc3)[C@]3(O)C[C@H](OC(=O)[C@H](O)[C@@H](NC(=O)c4ccccc4)c4ccccc4)C(C)=C1C3(C)C)[C@]1(OC(C)=O)CO[C@@H]1C[C@@H]2O [PTX, paclitaxel] |
| – | 2.58 µM | O=c1[nH]cc(F)c(=O)[nH]1 [5-FU, 5-fluorouracil] |
